Measured values taken from US20240360177A1, “PEPTIDES WITH ANTIMICROBIAL ACTIVITIES” (priority 2021, published 2024).
Values after ≈ are worked out from the molar mass of the structure shown. Where two headings read alike, the source gives them in different places. Starred links: 1 amine or outer side, 2 acyl side, 3 side chain; linkers in the order of their positions; H or OH if unused. Non-standard residues stand in square brackets, D forms with d. Residues, ends and D or L forms follow the SMILES beside them. NH(CH2)9CO = O=C(CCCCCCCCCN[*:1])[*:2]; Aoc = NCCCCCCCC(=O)O; Ava = NCCCCC(=O)O

Legend:
[1] = system: Staphylococcus aureus ATCC 29213; type: cell-based
[2] = system: Escherichia coli ATCC 25922; type: cell-based
[3] = system: Pseudomonas aeruginosa ATCC 27853; type: cell-based
C. albicans = details: 24 h
C. glabrata = details: 24 h
C. parapsilosis = details: 24 h
C. krusei = details: 24 h
C. auris = details: 24 h
C. tropicalis = details: 24 h
C. dubliniensis = details: 24 h
C. neoformans = details: 72 h
C. gattii = details: 72 h
Fusarium spp. = details: 48 h
Scedosporium spp. = details: 72 h
in vitro [4] = details: human, EC50 cytotoxicity in HepG2, intracellular ATP assay
[5] = system: Klebsiella pneumoniae ATCC 13883; type: cell-based
[6] = system: Salmonella senftenberg CDC 127; type: cell-based
[7] = system: Shigella sonnei MMX 10772; assay: Antibacterial broth microdilution MIC, Shigella sonnei; type: cell-based; details: CAMHB
[8] = system: Mycobacterium fortuitum ATCC 110; assay: Antibacterial broth microdilution MIC, Mycobacterium fortuitum; type: cell-based; details: 48 hrs
[9] = system: Mycobacterium smegmatis ATCC 700084; type: cell-based; details: ATCC 700084, 48 h
[10] = system: Trichophyton rubrum ATCC MYA-4438
[11] = system: Epidermophyton floccosum ATCC 52066
[12] = system: Microsporum gypseum ATCC 14683
[13] = Acute toxicity in CD-1 mice; details: both sexes, mouse, in vivo
Description: Acute toxicity and subacute toxicity of ACPs were tested in CD-1 mice. In the acute toxicity study, groups of CD-1 male or female mice were administered single intravenous or intraperitoneal escalating doses (n=2-3 per dose) of the peptides dissolved in normal saline for injection or in phosphate buffered saline. The intravenous dose was administered via tail vein with a slow push over 15-20 seconds. Doses were escalated based on tolerability.

[14] = Subacute toxicity in CD-1 mice; type: in vivo; details: daily IP for 7 days
Description: In the subacute toxicity study, groups of CD-1 male or female mice were administered seven consecutive daily intraperitoneal doses (n=3 per dose) of the peptides (SEQ ID NO: 7, SEQ ID NO: 29, SEQ ID NO: 53) dissolved in normal saline for injection. Each peptide was evaluated at 2 to 3 dose levels ranging from 2.5 to 7.5 mg/kg/day. Mice were weighed at least once daily and observed at least twice daily for any abnormal findings and determination of overall health. At 24 hrs after the last dose, mice were humanely euthanized, with blood collected through cardiac puncture into K2EDTA microtainers to assess hematological parameters. All three peptides were tolerated at the highest dose evaluated (7.5 mg/kg/day) for 7 days.

Coccidioides species = details: N = 10 strains; 48-72 hrs; >50% inhibition
[15] = mice
in vitro [16] = details: human, human serum, full strength

SMILES | MIC Staphylococcus aureus [1] | MIC C. albicans (C. albicans) | MIC C. glabrata (C. glabrata) | MIC C. parapsilosis (C. parapsilosis) | MIC C. krusei (C. krusei) | MIC C. auris (C. auris) | MIC C. tropicalis (C. tropicalis) | MIC C. dubliniensis (C. dubliniensis) | MIC C. neoformans (C. neoformans) | MIC C. gattii (C. gattii) | MIC Range Fusarium spp. (Fusarium spp.) | MIC Range Scedosporium spp. (Scedosporium spp.) | MIC Range Lomentospora prolificans (Lomentospora prolificans) | Activity at 24 h MIC50 against Candida spp. (Candida spp.) | Activity at 24 h MIC90 against Candida spp. (Candida spp.) | Activity at 48 h MIC50 against Candida spp. (Candida spp.) | Activity at 48 h MIC90 against Candida spp. (Candida spp.) | MIC Range Cryptococcus spp. (Cryptococcus spp.) | MIC Range Filamentous Fungi (Filamentous Fungi) | EC50 (in vitro [4]) | further results
N=C(N)NCCC[C@@H](N)C(=O)N[C@@H](CCCNC(=N)N)C(=O)N[C@H](CCCNC(=N)N)C(=O)NCCCCC(=O)N[C@H](CCCNC(=N)N)C(=O)N[C@@H](CCCNC(=N)N)C(=O)N[C@H](CCCNC(=N)N)C(=O)NCCCCC(=O)N[C@H](CCCNC(=N)N)C(=O)N[C@@H](CCCNC(=N)N)C(=O)N[C@H](CCCNC(=N)N)C(=O)N[C@@H](CCCNC(=N)N)C(=O)NCCCCC(=O)N[C@H](CCCNC(=N)N)C(=O)N[C@@H](CCCNC(=N)N)C(=O)N[C@H](CCCNC(=N)N)C(=O)N[C@@H](CCCNC(=N)N)C(N)=O [SEQ ID NO: 18, rRr-(Ava)-rRr-(Ava)-rRrR-(Ava)-rRrR-NH2] (H-[dR]R[dR][Ava][dR]R[dR][Ava][dR]R[dR]R[Ava][dR]R[dR]R-NH2) | 16 µg/mL (≈ 6.4 µM) | 1 µg/mL (≈ 0.4 µM) | 0.5 µg/mL (≈ 0.2 µM) | 0.25 µg/mL (≈ 0.1 µM) | 0.5 µg/mL (≈ 0.2 µM) | 0.25 µg/mL (≈ 0.1 µM) | 0.5 µg/mL (≈ 0.2 µM) | 0.5 µg/mL (≈ 0.2 µM) | 0.25 µg/mL (≈ 0.1 µM) | 0.25 µg/mL (≈ 0.1 µM) | 0.25 to 0.5 µg/mL | 0.25 to 0.5 µg/mL | 0.5 µg/mL (≈ 0.2 µM) | 0.5 µg/mL | 1 µg/mL | 0.5 µg/mL | 2 µg/mL | 0.25 to 0.5 µg/mL | 0.25 to 0.5 µg/mL | > 300 µg/mL | MIC Escherichia coli [2]: 32 µg/mL (≈ 12.8 µM); MIC Pseudomonas aeruginosa [3]: 64 µg/mL (≈ 25.6 µM)
N=C(N)NCCC[C@@H](N)C(=O)N[C@@H](CCCNC(=N)N)C(=O)N[C@H](CCCNC(=N)N)C(=O)NCCCCCCCCCC(=O)N[C@H](CCCNC(=N)N)C(=O)N[C@@H](CCCNC(=N)N)C(=O)N[C@H](CCCNC(=N)N)C(=O)NCCCCCCCC(=O)N[C@H](CCCNC(=N)N)C(=O)N[C@@H](CCCNC(=N)N)C(=O)N[C@H](CCCNC(=N)N)C(=O)N[C@@H](CCCNC(=N)N)C(=O)NCCCCCCCC(=O)N[C@H](CCCNC(=N)N)C(=O)N[C@@H](CCCNC(=N)N)C(=O)N[C@H](CCCNC(=N)N)C(=O)N[C@@H](CCCNC(=N)N)C(=O)NCCCCCCCC(=O)O [SEQ ID NO: 34, rRr-(Ada)-rRr-(Aoa)-rRrR-(Aoa)-rRrR-Aoa] (H-[dR]R[dR][NH(CH2)9CO][dR]R[dR][Aoc][dR]R[dR]R[Aoc][dR]R[dR]R[Aoc]-OH) | 16 µg/mL (≈ 5.72 µM) | 2 µg/mL (≈ 0.715 µM) | 8 µg/mL (≈ 2.86 µM) | 0.5 µg/mL (≈ 0.179 µM) | 1 µg/mL (≈ 0.357 µM) | 0.5 µg/mL (≈ 0.179 µM) | 0.5 µg/mL (≈ 0.179 µM) | 0.5 µg/mL (≈ 0.179 µM) | 0.5 µg/mL (≈ 0.179 µM) | 0.5 µg/mL (≈ 0.179 µM) | 0.25 to 2 µg/mL | – | – | – | – | – | – | – | – | 162 µg/mL (≈ 57.9 µM) | MIC Escherichia coli [2]: 4 µg/mL (≈ 1.43 µM); MIC Klebsiella pneumoniae [5]: 8 µg/mL (≈ 2.86 µM); MIC Pseudomonas aeruginosa [3]: 16 µg/mL (≈ 5.72 µM); MIC Salmonella senftenberg [6]: 8 µg/mL (≈ 2.86 µM); MIC Shigella sonnei [7]: 4 µg/mL (≈ 1.43 µM); MIC Mycobacterium fortuitum [8]: 2 µg/mL (≈ 0.715 µM); MIC Mycobacterium smegmatis [9]: 1 µg/mL (≈ 0.357 µM); MIC Trichophyton rubrum [10]: 4 µg/mL (≈ 1.43 µM); MIC Epidermophyton floccosum [11]: 8 µg/mL (≈ 2.86 µM); MIC Microsporum gypseum [12]: 32 µg/mL (≈ 11.4 µM)
N=C(N)NCCC[C@@H](N)C(=O)N[C@@H](CCCNC(=N)N)C(=O)N[C@H](CCCNC(=N)N)C(=O)N1CCC[C@H]1C(=O)N[C@H](CCCNC(=N)N)C(=O)N[C@@H](CCCNC(=N)N)C(=O)N[C@H](CCCNC(=N)N)C(=O)N1CCC[C@H]1C(=O)N[C@H](CCCNC(=N)N)C(=O)N[C@@H](CCCNC(=N)N)C(=O)N[C@H](CCCNC(=N)N)C(=O)N[C@@H](CCCNC(=N)N)C(=O)N1CCC[C@H]1C(=O)N[C@H](CCCNC(=N)N)C(=O)N[C@@H](CCCNC(=N)N)C(=O)N[C@H](CCCNC(=N)N)C(=O)N[C@@H](CCCNC(=N)N)C(N)=O [SEQ ID NO: 53, rRr-P-rRr-P-rRrR-P-rRrR-NH2] (H-[dR]R[dR]P[dR]R[dR]P[dR]R[dR]RP[dR]R[dR]R-NH2) | – | 0.5 µg/mL (≈ 0.2 µM) | 0.5 µg/mL (≈ 0.2 µM) | 0.25 µg/mL (≈ 0.1 µM) | 0.5 µg/mL (≈ 0.2 µM) | 0.25 µg/mL (≈ 0.1 µM) | 0.5 µg/mL (≈ 0.2 µM) | 0.25 µg/mL (≈ 0.1 µM) | 0.5 µg/mL (≈ 0.2 µM) | 0.25 µg/mL (≈ 0.1 µM) | 0.25 µg/mL (≈ 0.1 µM) | 0.25 µg/mL (≈ 0.1 µM) | 0.12 µg/mL (≈ 0.0481 µM) | 0.5 µg/mL | 0.5 µg/mL | 0.5 µg/mL | 2 µg/mL | 0.25 to 0.5 µg/mL | 0.12 to 0.25 µg/mL | > 300 µg/mL | MTD ([13]; single IP dose, read-out: Tolerated single intraperitoneal dose): 10 to 15 mg/kg; MTD ([13]; single IV dose via tail vein, read-out: Tolerated single intravenous dose): 5 to 7.5 mg/kg; Tolerated dose (highest dose evaluated) [14]: 7.5 mg/kg/day; Clinical or hematological adverse effects ([14]; up to 7.5 mg/kg/day): No significant clinical or hematological adverse effects were observed; MIC Range Coccidioides species (Coccidioides species): 0.06 to 0.25 µg/mL; Kidney to Plasma Concentration Ratio Day 7 ([15]; 6 hrs post dose of 7.5 mg/kg IP once daily, Day 7, mean ± SD, n = 3): 916 ± 36; Kidney to Plasma Concentration Ratio Day 1 ([15]; 6 hrs post dose of 7.5 mg/kg IP, Day 1, mean ± SD, n = 3): 179 ± 106; Day 1 AUC ratio, kidney to plasma ([15]; IP 7.5 mg/kg, Day 1): 58.3; remaining at 2 h, 5 μM (in vitro [16]): ~100%
N=C(N)NCCC[C@@H](N)C(=O)N[C@@H](CCCNC(=N)N)C(=O)N[C@H](CCCNC(=N)N)C(=O)N1CCC[C@H]1C(=O)N[C@H](CCCNC(=N)N)C(=O)N[C@@H](CCCNC(=N)N)C(=O)N[C@H](CCCNC(=N)N)C(=O)N1CCC[C@H]1C(=O)N[C@H](CCCNC(=N)N)C(=O)N[C@@H](CCCNC(=N)N)C(=O)N[C@H](CCCNC(=N)N)C(=O)N1CCC[C@H]1C(=O)N[C@H](CCCNC(=N)N)C(=O)N[C@@H](CCCNC(=N)N)C(=O)N[C@H](CCCNC(=N)N)C(N)=O [SEQ ID NO: 66, rRr-P-rRr-P-rRr-P-rRr-NH2] (H-[dR]R[dR]P[dR]R[dR]P[dR]R[dR]P[dR]R[dR]-NH2) | – | 0.25 µg/mL (≈ 0.115 µM) | 0.5 µg/mL (≈ 0.229 µM) | 0.25 µg/mL (≈ 0.115 µM) | 0.5 µg/mL (≈ 0.229 µM) | 8 µg/mL (≈ 3.67 µM) | 0.25 µg/mL (≈ 0.115 µM) | 0.25 µg/mL (≈ 0.115 µM) | 0.5 µg/mL (≈ 0.229 µM) | 1 µg/mL (≈ 0.458 µM) | 0.12 to 8 µg/mL | 0.5 to 2 µg/mL | 2 µg/mL (≈ 0.916 µM) | 0.5 µg/mL | 8 µg/mL | 0.5 µg/mL | 16 µg/mL | 0.5 to 1 µg/mL | 0.12 to 8 µg/mL | > 300 µg/mL | –
